This note sets out measurements from the supplement of paper PMC4862054.

Test in all cases: normalised response (% of control), CellTiter-Glo; higher = more viable cells (100 = DMSO, 0 = benzethonium chloride kill control)
Common to all, as to settings: incubation time: 72 h
A general note: In ATP-based viability assays light output follows the ATP content of the culture.

One assay has as its system BT-549. In a few lines: (§1)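 A 20 µl suspension of breast cancer cells was seeded into each well of 384-well plates containing compound at 5 concentrations in 10-fold steps over a compound-specific 10,000-fold range. After 72 h incubation, CellTox Green fluorescence (485/520 nm) was read first, and CellTiter-Glo luminescence was read after 10 min at room temperature. Each plate was normalised against 0.1 % DMSO (100) and a positive kill control (0), and each value is the normalised signal at one concentration.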

Another assay has as its system CAL-120. A digest of the protocol: as §1
Another assay has as its system CAL-51. A digest of the protocol: as §1
A further assay deals with CAL-85-1. A digest of the protocol: as §1
For the next assay, the system named is DU-4475. A digest of the protocol:
as §1

In the next assay the test system is HDQ-P1. A digest of the protocol: as §1
The test system of the next assay is MCF-10A. In a few lines: as §1
Another assay concerns MDA-MB-436. A digest of the protocol: as §1
The next assay has as its system SK-BR-3. A digest of the protocol:
as §1

The structures appear in SMILES notation.

Turning to `CC[C@@]1(O)C(=O)OCc2c1cc1n(c2=O)Cc2cc3c(CN(C)C)c(O)ccc3nc2-1` [Topotecan] (100 nM), the normalised response with BT-549 stood at 84.2%; in the assay on CAL-120, 95.9%; with CAL-51 it was 98.2%; in the assay on CAL-85-1, 85.7%; in the assay with DU-4475 it was 77.9%; in the assay on HDQ-P1, 95.7%. The normalised response with MCF-10A is 90.2%; with MDA-MB-436 it was 75.2%; in the assay with SK-BR-3, 66.3%.
